From ChEMBL document CHEMBL1201862, “PubChem BioAssay data set” (2004)
Calls of active or inactive are those of the source.

How the values were obtained:
[1] = A Cell Based Secondary Assay To Explore Cytotoxicity of Compounds that Sensitize Mycobacterium Tuberculosis to Beta-Lactam Antibiotics.; format: functional
[2] = target: T1, Estrogen receptor (Homo sapiens, UniProt P03372);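 further: potency for inhibiting coactivator peptide recruitment to the receptor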
T1 sequence (P03372 whole entry): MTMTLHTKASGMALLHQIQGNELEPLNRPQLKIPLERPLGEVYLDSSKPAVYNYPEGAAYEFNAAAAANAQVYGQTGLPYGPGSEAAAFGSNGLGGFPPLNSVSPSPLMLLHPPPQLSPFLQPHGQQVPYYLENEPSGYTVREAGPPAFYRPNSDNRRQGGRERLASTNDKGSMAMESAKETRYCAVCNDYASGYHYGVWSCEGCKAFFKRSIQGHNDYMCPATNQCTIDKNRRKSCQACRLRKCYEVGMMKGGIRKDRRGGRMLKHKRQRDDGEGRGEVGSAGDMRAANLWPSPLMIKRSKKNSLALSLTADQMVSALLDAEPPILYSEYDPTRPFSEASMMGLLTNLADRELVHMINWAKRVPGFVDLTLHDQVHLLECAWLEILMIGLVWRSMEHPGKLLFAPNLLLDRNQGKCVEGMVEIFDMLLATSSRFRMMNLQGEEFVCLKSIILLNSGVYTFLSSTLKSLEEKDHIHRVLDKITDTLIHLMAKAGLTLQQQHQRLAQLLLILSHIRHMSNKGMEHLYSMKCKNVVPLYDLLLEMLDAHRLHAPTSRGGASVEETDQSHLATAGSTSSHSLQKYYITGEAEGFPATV

[3] = target: T2, Long-chain-fatty-acid--AMP ligase FadD28 (Mycobacterium tuberculosis, UniProt P9WQ59); assay: Fluorescence polarization aasay to screen for inhibitors that compete for the binding of FadD28 to a bisubstrate Measured in Biochemical System Using Plate Reader - 2147-01_Inhibitor_Dose_CherryPick_Activity.; format: functional, Mycobacterium tuberculosis H37Rv
T2 sequence (P9WQ59 whole entry): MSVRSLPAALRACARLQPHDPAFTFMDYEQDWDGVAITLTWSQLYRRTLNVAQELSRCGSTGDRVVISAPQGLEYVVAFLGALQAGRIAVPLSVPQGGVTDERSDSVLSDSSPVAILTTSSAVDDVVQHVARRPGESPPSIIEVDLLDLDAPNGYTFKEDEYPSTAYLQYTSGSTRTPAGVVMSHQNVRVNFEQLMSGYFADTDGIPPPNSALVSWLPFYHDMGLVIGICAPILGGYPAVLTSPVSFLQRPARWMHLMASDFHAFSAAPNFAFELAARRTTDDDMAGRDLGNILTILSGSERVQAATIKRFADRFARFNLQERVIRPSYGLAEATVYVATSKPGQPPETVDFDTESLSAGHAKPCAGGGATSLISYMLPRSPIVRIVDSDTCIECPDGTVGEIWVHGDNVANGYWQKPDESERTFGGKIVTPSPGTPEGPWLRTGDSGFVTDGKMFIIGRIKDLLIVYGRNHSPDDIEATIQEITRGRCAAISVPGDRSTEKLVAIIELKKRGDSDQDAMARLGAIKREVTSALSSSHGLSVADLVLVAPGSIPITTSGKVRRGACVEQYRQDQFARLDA

[4] = target: T3, Leucine aminopeptidase (Plasmodium falciparum 3D7, UniProt Q8IL11); assay: P. falciparum M17LAP inhibitors, primary screen, biochemical, fluorogenic H-Leu-NHMec substrate, 1536-well (AID 1619); format: functional
T3 sequence (Q8IL11 whole entry): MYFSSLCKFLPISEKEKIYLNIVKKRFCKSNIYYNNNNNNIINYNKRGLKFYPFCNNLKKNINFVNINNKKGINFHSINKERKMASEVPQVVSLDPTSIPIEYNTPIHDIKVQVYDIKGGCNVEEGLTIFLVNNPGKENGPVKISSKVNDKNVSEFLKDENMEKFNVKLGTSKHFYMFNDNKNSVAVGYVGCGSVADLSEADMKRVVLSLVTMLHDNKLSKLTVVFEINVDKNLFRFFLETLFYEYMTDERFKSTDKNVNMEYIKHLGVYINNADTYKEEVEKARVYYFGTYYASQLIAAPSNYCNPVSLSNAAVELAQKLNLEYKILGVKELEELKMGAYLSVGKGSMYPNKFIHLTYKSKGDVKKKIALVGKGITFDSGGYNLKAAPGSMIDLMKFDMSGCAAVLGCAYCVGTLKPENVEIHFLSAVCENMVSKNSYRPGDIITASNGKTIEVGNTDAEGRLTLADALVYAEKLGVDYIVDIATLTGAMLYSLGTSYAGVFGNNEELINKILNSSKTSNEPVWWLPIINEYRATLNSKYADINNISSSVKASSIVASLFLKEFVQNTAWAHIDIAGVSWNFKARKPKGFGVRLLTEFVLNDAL

[5] = target: Procathepsin L (Homo sapiens, UniProt P07711); assay: cathepsin L inhibitors, dose response, counter-screen for M1/M17 aminopeptidase inhibitor project, biochemical, QFRET, 1536-well (AID 2214)
[6] = target: T4, Aspartyl aminopeptidase (Plasmodium falciparum 3D7, UniProt Q8I2J3); assay: Counterscreen for inhibitors of M1 and M17 aminopeptidases: QFRET-based biochemical high throughput dose response assay for inhibitors of the Plasmodium falciparum M18 Aspartyl Aminopeptidase (PFM18AAP). [Related PubChem assays: 1619 (Screening assay (M17LAP inhibitors).), 1445 (Screening assay (M1AAP inhibitors).)]
T4 sequence (Q8I2J3 whole entry): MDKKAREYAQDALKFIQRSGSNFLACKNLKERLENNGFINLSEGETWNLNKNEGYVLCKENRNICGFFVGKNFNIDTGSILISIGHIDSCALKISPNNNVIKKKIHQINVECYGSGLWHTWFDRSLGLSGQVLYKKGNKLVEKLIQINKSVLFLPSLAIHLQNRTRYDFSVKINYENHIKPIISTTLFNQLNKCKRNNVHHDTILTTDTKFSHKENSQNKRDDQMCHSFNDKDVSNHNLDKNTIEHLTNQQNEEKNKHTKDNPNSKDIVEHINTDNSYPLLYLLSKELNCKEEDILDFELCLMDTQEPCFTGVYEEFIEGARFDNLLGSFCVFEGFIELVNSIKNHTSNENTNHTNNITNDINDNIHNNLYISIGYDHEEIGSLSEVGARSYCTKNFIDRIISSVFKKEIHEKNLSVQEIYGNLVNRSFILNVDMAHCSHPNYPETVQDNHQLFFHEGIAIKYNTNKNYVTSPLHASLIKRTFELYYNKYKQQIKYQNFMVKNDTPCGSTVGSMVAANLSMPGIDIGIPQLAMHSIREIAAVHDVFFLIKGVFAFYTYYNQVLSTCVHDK

[7] = target: T5, Caspase-6 (Homo sapiens, UniProt P55212); assay: human caspase-6 inhibitors, dose response, biochemical, VEID-R110 fluorescence, cherry-pick (AID 720632)
T5 sequence (P55212 whole entry): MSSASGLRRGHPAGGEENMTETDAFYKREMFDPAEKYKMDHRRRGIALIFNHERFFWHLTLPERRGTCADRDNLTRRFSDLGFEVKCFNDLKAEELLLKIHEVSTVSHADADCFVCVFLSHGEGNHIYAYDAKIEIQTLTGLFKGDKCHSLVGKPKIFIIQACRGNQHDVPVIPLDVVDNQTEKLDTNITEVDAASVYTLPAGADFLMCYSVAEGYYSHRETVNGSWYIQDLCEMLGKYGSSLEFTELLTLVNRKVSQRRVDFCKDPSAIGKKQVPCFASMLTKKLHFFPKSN

[8] = target: Estrogen receptor beta (Homo sapiens, UniProt Q92731);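 further: recombinant ER-beta bound to coactivator SRC1 peptide in presence of estradiol agonist; inhibitors block coactivator peptide binding and lower the FRET signal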
[9] = target: Disintegrin and metalloproteinase domain-containing protein 17 (Homo sapiens, UniProt P78536); assay: ADAM17 protease inhibitors, dose response, counter-screen for ADAM10 exosite inhibitor project, biochemical, quenched FRET substrate (AID 743253)
[10] = Luminescence Cell-Based Dose Retest to Confirm Inhibitors of Cancer Stem Cells. [Related pubchem assays (depositor defined):AID2717, AID2721]; format: functional; details: Homo sapiens
[11] = target: T6, Ubiquitin-conjugating enzyme E2 N (Homo sapiens, UniProt P61088); format: functional;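 further: Dose-response confirmation in a TR-FRET assay detecting UBC13-driven polyubiquitin chain formation, inhibition measured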
T6 sequence (P61088 whole entry): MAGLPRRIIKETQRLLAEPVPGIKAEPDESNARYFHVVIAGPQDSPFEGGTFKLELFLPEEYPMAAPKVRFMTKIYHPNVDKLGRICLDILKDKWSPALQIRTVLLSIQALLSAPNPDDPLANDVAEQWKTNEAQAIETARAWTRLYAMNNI

[12] = target: T7, DNA repair and recombination protein RAD54-like (Homo sapiens, UniProt Q92698); assay: inhibitors of human RAD54 branch migration, confirmation, biochemical, fluorescence, cherry-picked samples, dose series (AID 651657); format: functional
T7 sequence (Q92698 whole entry): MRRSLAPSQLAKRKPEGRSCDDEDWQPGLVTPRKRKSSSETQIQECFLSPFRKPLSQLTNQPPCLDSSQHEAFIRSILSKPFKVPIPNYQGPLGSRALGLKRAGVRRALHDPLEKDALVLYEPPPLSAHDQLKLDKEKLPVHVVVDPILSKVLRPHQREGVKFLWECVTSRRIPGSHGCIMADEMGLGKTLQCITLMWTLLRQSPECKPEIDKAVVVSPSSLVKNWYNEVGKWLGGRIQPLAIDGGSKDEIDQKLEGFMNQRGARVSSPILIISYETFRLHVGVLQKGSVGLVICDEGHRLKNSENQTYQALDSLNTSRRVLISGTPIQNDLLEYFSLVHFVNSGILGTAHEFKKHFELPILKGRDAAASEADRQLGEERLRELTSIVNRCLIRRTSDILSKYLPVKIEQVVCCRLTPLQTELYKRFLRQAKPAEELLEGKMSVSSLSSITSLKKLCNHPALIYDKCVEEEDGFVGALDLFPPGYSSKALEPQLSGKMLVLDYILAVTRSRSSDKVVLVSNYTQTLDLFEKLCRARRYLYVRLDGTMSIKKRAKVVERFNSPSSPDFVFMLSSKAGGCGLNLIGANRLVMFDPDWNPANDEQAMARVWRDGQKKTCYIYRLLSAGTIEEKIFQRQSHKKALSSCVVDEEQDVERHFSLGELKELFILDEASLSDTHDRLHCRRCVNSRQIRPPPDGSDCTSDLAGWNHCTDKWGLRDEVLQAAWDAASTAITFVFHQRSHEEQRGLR

Sequence of Procathepsin L (P07711 whole entry): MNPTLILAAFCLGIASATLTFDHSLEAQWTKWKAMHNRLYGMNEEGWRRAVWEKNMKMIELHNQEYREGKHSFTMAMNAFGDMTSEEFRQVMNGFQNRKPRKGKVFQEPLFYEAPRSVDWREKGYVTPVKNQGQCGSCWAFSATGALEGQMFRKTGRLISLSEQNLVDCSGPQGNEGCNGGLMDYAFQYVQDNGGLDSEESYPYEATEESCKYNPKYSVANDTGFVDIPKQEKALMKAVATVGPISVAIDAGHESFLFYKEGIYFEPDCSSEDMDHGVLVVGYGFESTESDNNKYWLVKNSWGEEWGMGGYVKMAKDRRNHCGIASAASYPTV
Sequence of Disintegrin and metalloproteinase domain-containing protein 17 (P78536 whole entry, the tested form may be a part): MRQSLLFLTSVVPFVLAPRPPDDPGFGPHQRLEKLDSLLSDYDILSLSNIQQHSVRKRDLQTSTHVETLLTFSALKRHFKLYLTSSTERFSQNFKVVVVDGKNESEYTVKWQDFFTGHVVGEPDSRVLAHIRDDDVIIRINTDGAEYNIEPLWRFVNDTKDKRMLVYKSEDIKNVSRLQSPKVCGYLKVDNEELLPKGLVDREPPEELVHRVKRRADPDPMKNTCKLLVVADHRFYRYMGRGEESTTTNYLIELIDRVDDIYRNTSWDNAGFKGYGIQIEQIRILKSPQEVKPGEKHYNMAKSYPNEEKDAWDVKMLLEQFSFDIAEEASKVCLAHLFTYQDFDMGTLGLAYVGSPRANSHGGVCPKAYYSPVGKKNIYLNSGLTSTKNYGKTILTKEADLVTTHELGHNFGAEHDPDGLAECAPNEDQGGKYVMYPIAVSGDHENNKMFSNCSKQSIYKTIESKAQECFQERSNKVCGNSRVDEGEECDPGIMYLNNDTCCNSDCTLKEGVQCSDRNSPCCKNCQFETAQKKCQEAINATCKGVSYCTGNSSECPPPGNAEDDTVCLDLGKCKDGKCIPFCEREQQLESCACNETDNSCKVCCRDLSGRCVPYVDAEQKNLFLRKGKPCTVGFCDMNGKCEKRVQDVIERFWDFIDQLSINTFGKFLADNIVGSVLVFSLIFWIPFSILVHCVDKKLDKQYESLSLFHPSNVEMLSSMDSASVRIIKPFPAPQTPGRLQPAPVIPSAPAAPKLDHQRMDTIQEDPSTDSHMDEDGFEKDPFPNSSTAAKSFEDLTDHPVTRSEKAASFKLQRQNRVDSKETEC
Sequence of Estrogen receptor beta (Q92731 whole entry, the tested form may be a part): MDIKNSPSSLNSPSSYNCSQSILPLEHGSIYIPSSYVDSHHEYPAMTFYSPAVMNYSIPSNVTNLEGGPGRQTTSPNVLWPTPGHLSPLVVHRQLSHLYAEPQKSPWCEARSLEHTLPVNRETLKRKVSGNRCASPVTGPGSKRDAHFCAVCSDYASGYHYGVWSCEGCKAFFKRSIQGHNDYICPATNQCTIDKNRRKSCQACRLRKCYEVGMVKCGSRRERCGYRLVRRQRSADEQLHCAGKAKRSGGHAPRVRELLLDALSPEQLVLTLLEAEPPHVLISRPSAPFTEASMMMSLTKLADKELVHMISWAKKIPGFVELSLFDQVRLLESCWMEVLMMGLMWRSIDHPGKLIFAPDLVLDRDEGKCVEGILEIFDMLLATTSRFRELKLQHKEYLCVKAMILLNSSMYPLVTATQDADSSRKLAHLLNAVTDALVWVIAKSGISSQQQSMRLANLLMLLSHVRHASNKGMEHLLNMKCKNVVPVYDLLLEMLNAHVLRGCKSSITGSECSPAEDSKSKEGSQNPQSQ

Cc1ccc(C(=O)Nc2ccc(N3CCN(C(=O)c4cccs4)CC3)cc2)c(Cl)c1
CC50 [1]: > 40 µM (active)

O=C(NC1CCS(=O)(=O)C1)c1c(NC(=O)C2COc3ccccc3O2)sc2c1CCCC2 (stereo unspecified)
IC50 [2]: > 50 µM (not active)

Cc1nc2c(C(=O)NCCC3=CCCCC3)cnn2c(O)c1Cl
AC50 [3]: > 100 µM (inactive)

Cn1c(=O)c(C(=O)COC(=O)c2cc(C3CC3)nc3ccccc23)c(N)n(Cc2ccccc2)c1=O
CC50 [1]: > 40 µM (active)

O=C(NN1C(=O)/C(=C/c2cccc(O)c2)SC1=S)c1ccccc1O
AC50 [3]: 66.2 µM (active)

COc1cc(NC(=O)CSc2nnc3c(C)cc4cc(C)cc(C)c4n23)c(C(=O)O)cc1OC
IC50 [4]: 6 µM (active) | IC50 [5]: > 59.6 µM (not active) | IC50 [6]: > 73.5 µM (not active)

COc1cc(SC)ccc1C(=O)OC(C)C(=O)NC1CCCC1 (stereo unspecified)
AC50 [7]: 24.6 µM (active)

CC1(C)Cc2c(C#N)c(SCc3ccccc3)nc(N3CCOCC3)c2CO1
CC50 [1]: > 40 µM (active)

COC(=O)c1cnn2c(C(F)(F)F)cc(-c3ccco3)nc12
IC50 [8]: 25.9 µM (active) | IC50 [2]: 42.4 µM (not active)

O=C(O)C1CC=CCC1C(=O)Nc1cc(Cl)ccc1Cl (stereo unspecified)
IC50 [4]: 6.22 µM (active) | IC50 [5]: > 59.6 µM (not active) | IC50 [6]: > 73.5 µM (not active)

COc1ccc(/C=C2\SC(=O)N(CC(=O)Nc3cccnc3)C2=O)cc1OC
AC50 [3]: 32 µM (inactive)

O=C1CC(N(CCc2ccccc2)C(=S)Nc2cc(Cl)ccc2Cl)C(=O)N1c1c(Cl)cccc1Cl (stereo unspecified)
IC50 [9]: > 69.5 µM (inactive) | AC50 [10]: 1.61 µM (active)

CC1CCCCN1CCNC(=O)c1cc2c(=O)n(C)c3ccccc3c2n1C (stereo unspecified)
IC50 [11]: > 20 µM (inactive) | AC50 [12]: 33 µM (active)

CCOc1ccc(NC(=O)Nc2cccs2)cc1
IC50 [4]: 3.22 µM (active) | IC50 [5]: > 59.6 µM (not active) | IC50 [6]: > 73.5 µM (not active)

CCCCN(C)CCN=C(S)Nc1ccc2nc(N3CCN(CC)CC3)cc(C)c2c1
AC50 [12]: 16.2 µM (active)

O=C(O)[C@@H]1[C@@H](CO)[C@@H]2Cn3c(ccc(/C=C/c4ccccc4)c3=O)[C@@H]2N1Cc1ccc2c(c1)OCO2
AC50 [7]: 41.3 µM (active)

CC(N)C(=O)NC(C(=O)NC(C)C(=O)Nc1cccc2ccccc12)C(C)C (stereo unspecified)
AC50 [7]: 10.7 µM (active)
